# “Also recorded” adds a separate entry of the source. Where two headings read alike, the source gives them in different places.
# Tests used:
# MabA [1] = biological target: T1, MabA (Mycobacterium tuberculosis, UniProt P9WGT3); assay: MabA LC-MS/MS-based enzymatic assay (reduction of acetoacetyl-CoA into HBCoA); format: biochemical; conditions: for IC50: concentration inhibiting 50% of the transformation of acetoacetyl-CoA in HBCoA in the presence of NADPH, LC-MS/MS
# [2] = system: GFP-expressing M. tuberculosis H37Rv; assay: microbe, parasite or virus in culture; format: cell-based; conditions: Mycobacterium tuberculosis
# [3] = system: GFP-expressing M. tuberculosis H37Rv; design: method as in PMID 32505086; conditions: Middlebrook 7H9 liquid medium with OADC (contains albumin); 5 days; GFP signal; reported previously; cited from earlier work
# LogD octanol/PBS pH 7.4 = conditions: octanol/PBS 1/1, pH 7.4
# Solubility in PBS pH 7.4 = conditions: PBS pH 7.4, pH 7.4, aqueous buffer, kinetic from dmso stock
# plasma proteins = assay: Plasma protein binding by rapid equilibrium dialysis; conditions: 10% plasma (diluted 1 to 10 in phosphate buffer), pH 7.2
# MabA [4] = biological target: T1, MabA; format: binding
# M. tuberculosis H37Rv = format: cell-based
# [5] = Solubility in Sauton medium; format: physicochemical; conditions: aqueous buffer
# H37Rv [6] = format: cell-based, M. tuberculosis
# [7] = system: H37Rv carrying pUV15-pHGFP; format: cell-based, M. tuberculosis; conditions: pH 4.5
# H37Rv [8] = format: cell-based, M. tuberculosis; remark: listed apart in the source
# T1 sequence (P9WGT3 whole entry, looked up): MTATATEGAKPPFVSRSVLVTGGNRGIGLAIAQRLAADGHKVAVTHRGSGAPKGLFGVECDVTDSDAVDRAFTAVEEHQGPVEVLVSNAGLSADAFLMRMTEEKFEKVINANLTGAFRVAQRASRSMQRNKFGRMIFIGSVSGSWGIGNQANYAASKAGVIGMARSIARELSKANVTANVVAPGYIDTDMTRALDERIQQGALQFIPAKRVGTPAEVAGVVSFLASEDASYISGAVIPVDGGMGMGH
smiles,measurement,setting,value
"O=C(Nc1ccc(I)cc1C(=O)O)c1ccc(Cl)c(Cl)c1 [Compound 1, 2-[(3,4-dichlorobenzoyl)amino]-5-iodo-benzoic acid]",IC50,MabA [1],38 ± 6 µM
same,MIC90,[2],300 µM
same,MIC90,[2]; 168 h,100 µM
same,MIC90,[3],300 µM
same,logD at 2 h,LogD octanol/PBS pH 7.4,3.4
same,solubility at 24 h,Solubility in PBS pH 7.4,> 200 µM
same,"fraction unbound at 4 h, 10 µM",plasma proteins,0.0014
"O=C(Nc1ccc(Br)cc1C(=O)O)c1ccc(Cl)c(Cl)c1 [Compound 2, 5-bromo-2-[(3,4-dichlorobenzoyl)amino]benzoic Acid]",IC50,MabA [1],45 µM
same,MIC90,[2]; 168 h,100 µM
same,MIC90,[3],300 µM
same,logD at 2 h,LogD octanol/PBS pH 7.4,3
same,solubility at 24 h,Solubility in PBS pH 7.4,181 µM
"CN(C(=O)c1ccc(Cl)c(Cl)c1)c1ccc(I)cc1C(=O)O [Compound 3, 2-[(3,4-dichlorobenzoyl)-methyl-amino]-5-iodo-benzoic Acid]",IC50,MabA [1],> 200 µM
"O=C(O)c1cc(I)ccc1NS(=O)(=O)c1ccc(Cl)c(Cl)c1 [Compound 4, 2-[(3,4-dichlorophenyl)sulfonylamino]-5-iodo-benzoic Acid]",IC50,MabA [1],40 µM
"O=C(O)c1cc(Br)ccc1C(=O)Nc1ccc(Cl)c(Cl)c1 [Compound 5, 5-bromo-2-[(3,4-dichlorophenyl)carbamoyl]benzoic Acid]",IC50,MabA [1],268 µM
"O=C(O)c1cc(Br)ccc1NC(=S)c1ccc(Cl)c(Cl)c1 [Compound 6, 5-bromo-2-[(3,4-dichlorobenzenecarbothioyl)amino]benzoic Acid]",IC50,MabA [1],39 µM
"O=C(O)c1cc(Br)ccc1-c1nc(-c2ccc(Cl)c(Cl)c2)no1 [Compound 7, 5-bromo-2-[3-(3,4-dichlorophenyl)-1,2,4-oxadiazol-5-yl]benzoic Acid]",IC50,MabA [1],102 µM
"O=C(Nc1ccc(I)cc1CO)c1ccc(Cl)c(Cl)c1 [Compound 8, 3,4-dichloro-N-[2-(hydroxymethyl)-4-iodo-phenyl]benzamide]",IC50,MabA [1],> 333 µM
"NC(=O)c1cc(I)ccc1NC(=O)c1ccc(Cl)c(Cl)c1 [Compound 9, N-(2-carbamoyl-4-iodo-phenyl)-3,4-dichloro-benzamide]",IC50,MabA [1],> 500 µM
"N#Cc1cc(I)ccc1NC(=O)c1ccc(Cl)c(Cl)c1 [Compound 10, 3,4-dichloro-N-(2-cyano-4-iodo-phenyl)benzamide]",IC50,MabA [1],> 1000 µM
"O=C(Nc1ccc(I)cc1-c1nnn[nH]1)c1ccc(Cl)c(Cl)c1 [Compound 11, 3,4-dichloro-N-[4-iodo-2-(1H-tetrazol-5-yl)phenyl]benzamide]",IC50,MabA [1],24 µM
"O=C(Nc1ccc(I)cc1C(=O)NS(=O)(=O)C(F)(F)F)c1ccc(Cl)c(Cl)c1 [Compound 12, 3,4-dichloro-N-[4-iodo-2-(trifluoromethylsulfonylcarbamoyl)phenyl]benzamide]",IC50,MabA [1],35 µM
same,MIC90,[2]; 168 h,300 µM
same,19F- and 1H-NMR signal in the presence of MabA,MabA [4],confirmed the direct binding; also recorded: total disappearance of the signal
same,logD at 2 h,LogD octanol/PBS pH 7.4,4.1
same,solubility at 24 h,Solubility in PBS pH 7.4,180 µM
same,"fraction unbound at 4 h, 10 µM",plasma proteins,0.0002
"CS(=O)(=O)NC(=O)c1cc(I)ccc1NC(=O)c1ccc(Cl)c(Cl)c1 [Compound 13, 3,4-dichloro-N-[4-iodo-2-(methylsulfonylcarbamoyl)phenyl]benzamide]",IC50,MabA [1],28 µM
"O=C(Nc1cc(Br)ccc1C(=O)O)c1ccc(Cl)c(Cl)c1 [Compound 14, 4-bromo-2-[(3,4-dichlorobenzoyl)amino]benzoic Acid]",IC50,MabA [1],34 µM
"O=C(Nc1ccccc1C(=O)O)c1ccc(Cl)c(Cl)c1 [Compound 15, 2-[(3,4-dichlorobenzoyl)amino]benzoic Acid]",IC50,MabA [1],> 1000 µM
"O=C(Nc1ccc(C#CC2CC2)cc1C(=O)O)c1ccc(Cl)c(Cl)c1 [Compound 16, 5-(2-cyclopropylethynyl)-2-[(3,4-dichlorobenzoyl)amino]benzoic Acid]",IC50,MabA [1],60 µM
same,MIC90,[2]; 168 h,100 µM
same,effect on mycolic acids synthesis (TLC),M. tuberculosis H37Rv,no specific inhibition of mycolic acids
same,solubility,[5],> 300 µM
same,effect of pH on potency,H37Rv [6],decreasing pH improved the potency
same,effect on intrabacterial pH,[7],dose-dependent decrease in the intrabacterial pH
same,transcriptional response,H37Rv [8],"downregulation of genes implicated in DNA replication, transcription, translation and growth"
same,solubility at 24 h,Solubility in PBS pH 7.4,> 200 µM
same,"fraction unbound at 4 h, 10 µM",plasma proteins,0.0006
"C#Cc1ccc(C(=O)O)c(NC(=O)c2ccc(Cl)c(Cl)c2)c1 [Compound 17, 2-[(3,4-dichlorobenzoyl)amino]-4-ethynyl-benzoic Acid]",fold reduction in potency,MabA [1],2 fold
same,IC50,MabA [1],77 µM
"O=C(Nc1cc(-n2cccn2)ccc1C(=O)O)c1ccc(Cl)c(Cl)c1 [Compound 18, 2-[(3,4-dichlorobenzoyl)amino]-4-pyrazol-1-yl-benzoic Acid]",improvement of the activity by a factor,MabA [1],1.6
same,IC50,MabA [1],23 µM
same,MIC90,[2]; 168 h,300 µM
same,effect on mycolic acids synthesis (TLC),M. tuberculosis H37Rv,no specific inhibition of mycolic acids
same,solubility,[5],> 300 µM
same,logD at 2 h,LogD octanol/PBS pH 7.4,2.54
same,solubility at 24 h,Solubility in PBS pH 7.4,149 µM
same,"fraction unbound at 4 h, 10 µM",plasma proteins,< 0.0001
"O=C(Nc1cc2ccccc2cc1C(=O)O)c1ccc(Cl)c(Cl)c1 [Compound 19, 3-[(3,4-dichlorobenzoyl)amino]naphthalene-2-carboxylic Acid]",IC50,MabA [1],33 µM
"O=C(Nc1nc2ccccc2cc1C(=O)O)c1ccc(Cl)c(Cl)c1 [Compound 20, 2-[(3,4-dichlorobenzoyl)amino]quinoline-3-carboxylic Acid]",fold reduction in potency,MabA [1],2 fold
same,IC50,MabA [1],76 µM
"CCc1cc(C(N)=S)ccn1 [ethionamide, reference compound]",MIC,[2]; 168 h,2 µg/mL
"NNC(=O)c1ccncc1 [isoniazid, reference compound]",MIC,[2]; 168 h,0.125 µg/mL
same,effect on mycolic acids synthesis (TLC),M. tuberculosis H37Rv,decrease in mycolic acids synthesis
"CO[C@H]1/C=C/O[C@@]2(C)Oc3c(C)c(O)c4c(O)c(c(/C=N/N5CCN(C)CC5)c(O)c4c3C2=O)NC(=O)/C(C)=C\C=C\[C@H](C)[C@H](O)[C@@H](C)[C@@H](O)[C@@H](C)[C@H](OC(C)=O)[C@@H]1C [rifampicine, reference compound]",MIC,[2]; 168 h,0.004 µg/mL
